# Laboratory results from patent publication US20240360178A1, “MACROCYCLIC IMMUNOMODULATORS” (Bristol-Myers Squibb Company, priority 2021, published 2024).
# Positions of bridges follow the written chain, without caps; N, C: chain ends. Non-standard residues stand in square brackets, D forms with d. Residues, ends and D or L forms follow the SMILES beside them. ξ: configuration not given here. Phe(4-COOH) = N[C@@H](Cc1ccc(C(=O)O)cc1)C(=O)O; Bip = N[C@@H](Cc1ccc(-c2ccccc2)cc1)C(=O)O; Phe(3-Br) = N[C@@H](Cc1cccc(Br)c1)C(=O)O; Phe(4-NH2) = Nc1ccc(C[C@H](N)C(=O)O)cc1; NMeF = CN[C@@H](Cc1ccccc1)C(=O)O; hPhe = N[C@@H](CCc1ccccc1)C(=O)O; 4Pal = N[C@@H](Cc1ccncc1)C(=O)O; Thr(3ξ) = CC(O)[C@H](N)C(=O)O; NMeA = CN[C@@H](C)C(=O)O; Nle = CCCC[C@H](N)C(=O)O; Dab = NCC[C@H](N)C(=O)O; Sar = CNCC(=O)O
# Target: T1, human PD-1 (Jurkat-PD-1 cells) / PE-labeled human PD-L1-Ig (Homo sapiens, UniProt Q15116)
# T1 construct: expressed in transfected cells; host or cells: Jurkat cell line over-expressing human PD-1
# Experiment: Jurkat-PD-1 Cell Binding High-Content Screening Assay (CBA); Jurkat hPD1-PDL1 assay
# Conditions: Jurkat cell line over-expressing human PD-1; PE-labeled PD-L1-Ig 20 nM final; compound incubated 2 hours at 37° C.; read-out: Jurkat HPD1-PDL1 IC50
# Procedure, shortened: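 Cell binding by imaging: Jurkat line stably over-expressing human PD-1, compound pre-exposure 2 h at 37° C, PE-conjugated PD-L1-Ig 20 nM final, medium DMEM containing 10% FCS.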
# T1 sequence (Q15116 25-288): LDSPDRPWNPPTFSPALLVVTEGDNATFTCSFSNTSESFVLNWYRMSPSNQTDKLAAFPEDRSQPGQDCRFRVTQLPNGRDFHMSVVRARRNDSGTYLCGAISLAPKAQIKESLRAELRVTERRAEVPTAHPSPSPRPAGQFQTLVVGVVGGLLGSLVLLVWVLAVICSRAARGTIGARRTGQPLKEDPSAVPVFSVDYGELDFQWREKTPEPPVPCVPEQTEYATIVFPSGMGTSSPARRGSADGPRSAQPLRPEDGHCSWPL
row,IC50,SMILES
1,0.16 µM,CC(C)C[C@@H]1NC(=O)[C@H](CCCNC(=N)N)NC(=O)[C@H](Cc2ccccc2)N(C)C(=O)[C@H](C)N(C)C(=O)[C@H](CCCNC(=N)N)NC(=O)[C@H](Cc2ccc(-c3ccccc3)cc2)NC(=O)[C@H](C(C)C)NC(=O)[C@H](Cc2c[nH]c3ccccc23)NC(=O)[C@H](CC(=O)O)NC(=O)[C@H](Cc2ccc(O)cc2)NC(=O)[C@H](CO)NC(=O)CSC[C@@H](C(=O)NCC(N)=O)NC(=O)[C@H](CO)NC(=O)[C@H](C(C)C)NC1=O [Example 1062] ({CH2CO}-SYDWV[Bip]R[NMeA][NMeF]RLVSCG-NH2; thioether N-14)
2,0.16 µM,CC(C)C[C@@H]1NC(=O)[C@H](CCCNC(=N)N)NC(=O)[C@H](Cc2ccccc2)N(C)C(=O)[C@H](C)N(C)C(=O)[C@H](CCCNC(=N)N)NC(=O)[C@H](Cc2ccc(-c3ccccc3)cc2)NC(=O)[C@H](C(C)C)NC(=O)[C@H](Cc2c[nH]c3ccccc23)NC(=O)[C@H](CC(=O)O)NC(=O)[C@H](Cc2ccc(O)cc2)NC(=O)[C@H](Cc2ccccc2)NC(=O)CSC[C@@H](C(=O)N[C@H](C(N)=O)C(C)O)NC(=O)[C@H](CO)NC(=O)[C@H](C(C)C)NC1=O (stereo partly shown) [Example 1063] ({CH2CO}-FYDWV[Bip]R[NMeA][NMeF]RLVSC[Thr(3ξ)]-NH2; thioether N-14)
3,0.16 µM,CC(C)C[C@@H]1NC(=O)[C@H](Cc2c[nH]c3ccccc23)NC(=O)[C@H](CC(=O)O)NC(=O)[C@H](Cc2ccncc2)NC(=O)[C@H](Cc2ccccc2)NC(=O)CSC[C@@H](C(=O)N[C@@H](C)C(N)=O)NC(=O)[C@H](CO)NC(=O)[C@H](C(C)C)NC(=O)[C@H](CC(C)C)NC(=O)[C@H](CC(N)=O)NC(=O)CN(C)C(=O)[C@H](C)N(C)C(=O)[C@H](C(C)C)NC(=O)[C@H](Cc2ccc(-c3ccccc3)cc2)NC1=O [Example 1064] ({CH2CO}-F[4Pal]DWL[Bip]V[NMeA][Sar]NLVSCA-NH2; thioether N-14)
4,0.12 µM,CC(C)C[C@@H]1NC(=O)[C@H](Cc2c[nH]c3ccccc23)NC(=O)[C@H](CC(=O)O)NC(=O)[C@H](Cc2cccc(Br)c2)NC(=O)[C@H](Cc2ccccc2)NC(=O)CSC[C@@H](C(=O)N[C@@H](C)C(N)=O)NC(=O)[C@H](CO)NC(=O)[C@H](C(C)C)NC(=O)[C@H](CC(C)C)NC(=O)[C@H](CC(N)=O)NC(=O)[C@H]2CCCN2C(=O)[C@H](C)N(C)C(=O)[C@H](C(C)C)NC(=O)[C@H](Cc2ccc(-c3ccccc3)cc2)NC1=O [Example 1065] ({CH2CO}-F[Phe(3-Br)]DWL[Bip]V[NMeA][dP]NLVSCA-NH2; thioether N-14)
5,0.16 µM,CC(C)C[C@@H]1NC(=O)[C@H](Cc2c[nH]c3ccccc23)NC(=O)[C@H](CC(=O)O)NC(=O)[C@H](Cc2ccc(C(=O)O)cc2)NC(=O)[C@H](Cc2ccccc2)NC(=O)CSC[C@@H](C(=O)N[C@@H](C)C(N)=O)NC(=O)[C@H](CO)NC(=O)[C@H](C(C)C)NC(=O)[C@H](CC(C)C)NC(=O)[C@H](CC(N)=O)NC(=O)CN(C)C(=O)[C@H](C)N(C)C(=O)[C@H](C(C)C)NC(=O)[C@H](Cc2ccc(-c3ccccc3)cc2)NC1=O [Example 1066] ({CH2CO}-F[Phe(4-COOH)]DWL[Bip]V[NMeA][Sar]NLVSCA-NH2; thioether N-14)
6,0.16 µM,CCCC[C@@H]1NC(=O)[C@H](CCCNC(=N)N)NC(=O)[C@H](Cc2ccccc2)N(C)C(=O)[C@H](C)N(C)C(=O)[C@H](CCCNC(=N)N)NC(=O)[C@H](Cc2ccc(-c3ccccc3)cc2)NC(=O)[C@H](C(C)C)NC(=O)[C@H](Cc2c[nH]c3ccccc23)NC(=O)[C@H](CC(=O)O)NC(=O)[C@H](Cc2ccc(O)cc2)NC(=O)[C@H](Cc2ccccc2)NC(=O)CSC[C@@H](C(=O)NCC(N)=O)NC(=O)[C@H](CO)NC(=O)[C@H](C(C)C)NC1=O [Example 1067] ({CH2CO}-FYDWV[Bip]R[NMeA][NMeF]R[Nle]VSCG-NH2; thioether N-14)
7,0.17 µM,CC(C)C[C@@H]1NC(=O)[C@H](CCCNC(=N)N)NC(=O)[C@H](Cc2ccccc2)N(C)C(=O)[C@H](C)N(C)C(=O)[C@H](CCCNC(=N)N)NC(=O)[C@H](Cc2ccc(-c3ccccc3)cc2)NC(=O)[C@H](C(C)C)NC(=O)[C@H](Cc2c[nH]c3ccccc23)NC(=O)[C@H](CC(=O)O)NC(=O)[C@H](Cc2ccc(O)cc2)NC(=O)[C@H](Cc2ccc(O)cc2)NC(=O)CSC[C@@H](C(=O)NCC(N)=O)NC(=O)[C@H](CO)NC(=O)[C@H](C(C)C)NC1=O [Example 1068] ({CH2CO}-YYDWV[Bip]R[NMeA][NMeF]RLVSCG-NH2; thioether N-14)
8,0.16 µM,CC(C)C[C@@H]1NC(=O)[C@H](Cc2c[nH]c3ccccc23)NC(=O)[C@H](CC(=O)O)NC(=O)[C@H](Cc2ccc(O)cc2)NC(=O)[C@H](Cc2ccccc2)NC(=O)CSC[C@@H](C(=O)NCC(N)=O)NC(=O)[C@H](CO)NC(=O)[C@H](C(C)C)NC(=O)[C@H](CC(C)C)NC(=O)[C@H](CCN)NC(=O)CN(C)C(=O)[C@H](C)N(C)C(=O)[C@H](C(C)C)NC(=O)[C@H](Cc2ccc(-c3ccccc3)cc2)NC1=O [Example 1069] ({CH2CO}-FYDWL[Bip]V[NMeA][Sar][Dab]LVSCG-NH2; thioether N-14)
9,0.18 µM,CC(C)C[C@@H]1NC(=O)[C@H](Cc2c[nH]c3ccccc23)NC(=O)[C@H](CC(=O)O)NC(=O)[C@H](Cc2ccc(O)cc2)NC(=O)[C@H](CCc2ccccc2)NC(=O)CSC[C@@H](C(=O)N[C@@H](C)C(N)=O)NC(=O)[C@H](CO)NC(=O)[C@H](C(C)C)NC(=O)[C@H](CC(C)C)NC(=O)[C@H](CC(N)=O)NC(=O)CN(C)C(=O)[C@H](C)N(C)C(=O)[C@H](C(C)C)NC(=O)[C@H](Cc2ccc(-c3ccccc3)cc2)NC1=O [Example 1070] ({CH2CO}-[hPhe]YDWL[Bip]V[NMeA][Sar]NLVSCA-NH2; thioether N-14)
10,0.19 µM,CC(C)C[C@@H]1NC(=O)[C@H](Cc2c[nH]c3ccccc23)NC(=O)[C@H](CC(=O)O)NC(=O)[C@H](Cc2ccc(O)cc2)NC(=O)[C@H](Cc2ccccc2)NC(=O)CSC[C@@H](C(=O)NCC(N)=O)NC(=O)[C@H](CO)NC(=O)[C@H](C(C)C)NC(=O)[C@H](CC(C)C)NC(=O)[C@H](CCC(=O)O)NC(=O)CN(C)C(=O)[C@H](C)N(C)C(=O)[C@H](C(C)C)NC(=O)[C@H](Cc2ccc(-c3ccccc3)cc2)NC1=O [Example 1071] ({CH2CO}-FYDWL[Bip]V[NMeA][Sar]ELVSCG-NH2; thioether N-14)
11,0.19 µM,CC(C)C[C@@H]1NC(=O)[C@H](Cc2c[nH]c3ccccc23)NC(=O)[C@H](CC(=O)O)NC(=O)[C@H](Cc2ccc(O)cc2)NC(=O)[C@H](Cc2ccccc2)NC(=O)CSC[C@@H](C(=O)NCC(N)=O)NC(=O)[C@H](CO)NC(=O)[C@H](C(C)C)NC(=O)[C@H](CC(C)C)NC(=O)[C@H](CCC(N)=O)NC(=O)CN(C)C(=O)[C@H](C)N(C)C(=O)[C@H](C(C)C)NC(=O)[C@H](Cc2ccc(-c3ccccc3)cc2)NC1=O [Example 1072] ({CH2CO}-FYDWL[Bip]V[NMeA][Sar]QLVSCG-NH2; thioether N-14)
12,0.19 µM,CCCC[C@@H]1NC(=O)[C@H](CC(N)=O)NC(=O)CN(C)C(=O)[C@H](C)N(C)C(=O)[C@H](C(C)C)NC(=O)[C@H](Cc2ccc(-c3ccccc3)cc2)NC(=O)[C@H](CC(C)C)NC(=O)[C@H](Cc2c[nH]c3ccccc23)NC(=O)[C@H](CC(=O)O)NC(=O)[C@H](Cc2ccc(O)cc2)NC(=O)[C@H](Cc2ccccc2)NC(=O)CSC[C@@H](C(=O)NCC(N)=O)NC(=O)[C@H](CO)NC(=O)[C@H](C(C)C)NC1=O [Example 1073] ({CH2CO}-FYDWL[Bip]V[NMeA][Sar]N[Nle]VSCG-NH2; thioether N-14)
13,0.19 µM,CC(C)C[C@@H]1NC(=O)[C@H](CCCNC(=N)N)NC(=O)[C@H](Cc2ccccc2)N(C)C(=O)[C@H](C)N(C)C(=O)[C@H](CCCNC(=N)N)NC(=O)[C@H](Cc2ccc(-c3ccccc3)cc2)NC(=O)[C@H](C(C)C)NC(=O)[C@H](Cc2c[nH]c3ccccc23)NC(=O)[C@H](CC(=O)O)NC(=O)[C@H](Cc2ccc(O)cc2)NC(=O)[C@H](Cc2ccccc2)NC(=O)CSC[C@@H](C(=O)N[C@@H](C)C(N)=O)NC(=O)[C@H](CO)NC(=O)[C@H](C(C)C)NC1=O [Example 1074] ({CH2CO}-FYDWV[Bip]R[NMeA][NMeF]RLVSCA-NH2; thioether N-14)
14,0.2 µM,CC(C)C[C@@H]1NC(=O)[C@H](CCCNC(=N)N)NC(=O)[C@H]2CCCN2C(=O)[C@H](C)N(C)C(=O)[C@H](C(C)C)NC(=O)[C@H](Cc2ccc(-c3ccccc3)cc2)NC(=O)[C@H](C(C)C)NC(=O)[C@H](Cc2c[nH]c3ccccc23)NC(=O)[C@H](CC(=O)O)NC(=O)[C@H](Cc2ccc(O)cc2)NC(=O)[C@H](Cc2ccccc2)NC(=O)CSC[C@@H](C(=O)N[C@@H](C)C(N)=O)NC(=O)[C@H](CO)NC(=O)[C@H](C(C)C)NC1=O [Example 1075] ({CH2CO}-FYDWV[Bip]V[NMeA][dP]RLVSCA-NH2; thioether N-14)
15,0.21 µM,CC(C)C[C@@H]1NC(=O)[C@H](Cc2c[nH]c3ccccc23)NC(=O)[C@H](CC(=O)O)NC(=O)[C@H](Cc2ccc(N)cc2)NC(=O)[C@H](Cc2ccccc2)NC(=O)CSC[C@@H](C(=O)N[C@@H](C)C(N)=O)NC(=O)[C@H](CO)NC(=O)[C@H](C(C)C)NC(=O)[C@H](CC(C)C)NC(=O)[C@H](CC(N)=O)NC(=O)CN(C)C(=O)[C@H](C)N(C)C(=O)[C@H](C(C)C)NC(=O)[C@H](Cc2ccc(-c3ccccc3)cc2)NC1=O [Example 1076] ({CH2CO}-F[Phe(4-NH2)]DWL[Bip]V[NMeA][Sar]NLVSCA-NH2; thioether N-14)
16,0.21 µM,CC(C)C[C@@H]1NC(=O)CSC[C@@H](C(=O)NCC(N)=O)NC(=O)[C@H](CO)NC(=O)[C@H](C(C)C)NC(=O)[C@H](CC(C)C)NC(=O)[C@H](CCCNC(=N)N)NC(=O)[C@H](Cc2ccccc2)N(C)C(=O)[C@H](C)N(C)C(=O)[C@H](CCCNC(=N)N)NC(=O)[C@H](Cc2ccc(-c3ccccc3)cc2)NC(=O)[C@H](C(C)C)NC(=O)[C@H](Cc2c[nH]c3ccccc23)NC(=O)[C@H](CC(=O)O)NC(=O)[C@H](Cc2ccc(O)cc2)NC1=O [Example 1077] ({CH2CO}-LYDWV[Bip]R[NMeA][NMeF]RLVSCG-NH2; thioether N-14)
